The text below walks through data of publication PMC7765409 (International Journal of Molecular Sciences, 2020).

One assay relates to C/EBPβ gene expression. Put plainly: RT-qPCR gene expression in TG/FA-treated hiPSC-Hep. In kind it is cell-based, human. The conditions noted are these: 24 h pre-treatment then TG/FA 18 h; relative to TG/FA. How it is done:
(§1) To explore the signaling partners triggered or altered by the drugs, we performed gene expression RT-qPCR. The hiPSC-Hep were pre-treated in a 24-well plate with the three compounds shown in Figure 7 for 24 h followed by TG/FA challenge for an additional 18 h and RNA from each treatment well was isolated. The pre-treatment paradigm was chosen to stay consistent with how the original HTS was performed. We analyzed several target gene expression levels in the C/EBP-EP300 pathway including CDK2, CDK4, C/EBPα and C/EBPβ, EP300, and diacylglycerol acyltransferase 2 (DGAT2).
(§2) RNA was isolated from hiPSC-derived hepatocytes using the RNeasy kit (Qiagen, Frederick) and subsequently subjected to DNase digestion (Qiagen). Total RNA was quantified using NanoDrop 8000 (Thermo Scientific). The quality of total RNA was assessed by the Agilent Bioanalyzer Nano chip (Agilent Technologies) and RNA integrity number (RIN) ranged from 9.7 to 10. Reverse transcription was performed using the high capacity cDNA reverse transcription kit (Applied Biosystems, Foster City, CA, USA) according to the manufacturer’s recommendation and the complementary DNA (cDNA) obtained used for real-time quantitative PCR. The reaction mixture (10 μL), containing 1 μL of cDNA template, 0.5 μL each of primer and probe (20×, Thermo Fisher Scientific) mix for the gene of interest plus the reference gene and TaqMan Universal PCR master mix (Applied Biosystems) was added to the opaque white 384-well plates and amplified as follows: after 2 min of initial incubation at 50 °C and 10 min of initial denaturation at 95 °C, 45 cycles at 95 °C for 15 s, 60 °C for 1 min for annealing and 1 sec at 72 °C for final extension were performed. Assays were designed to have primers/probes to span exon–exon junctions (Table S1). Direct detection of PCR products was monitored by measuring the fluorescence produced by the result of TaqMan probe hydrolysis after every cycle. All experiments were carried out in triplicate in a LightCycler 480 thermocycler (Roche Diagnostic). Relative gene expression from qPCR data between groups of samples were assessed using a ∆∆Cq method. To adjust for variations in the cDNA synthesis each gene was normalized to that of hypoxanthine phosphoribosyl transferase 1 (HPRT1] or GAPDH mRNA.
A general note: Quantitative PCR measures a nucleic acid by following its amplification.

For the next assay, the system named is DGAT2 mRNA. Briefly: RT-qPCR gene expression in TG/FA-treated hiPSC-Hep. Format: cell-based, human. The conditions noted are these: dose-dependent, under condition of hepatic steatosis (TG/FA). How it is done:
as §1, §2

The subject of a further assay is CDK5R1. More on the design: method as in AstraZeneca data repository. The conditions noted are these: median log of IC50/EC50/Ki/Kd annotations, highest value; ref AstraZeneca data repository; cited from earlier work.
The next assay relates to CDK16. More on the design: method as in AstraZeneca data repository. The conditions noted are these: median log of IC50/EC50/Ki/Kd annotations, highest value; ref AstraZeneca data repository; cited from earlier work.

In the case of `Cc1ncc(-c2nc(Nc3ccc(N4CCN(C(=O)CO)CC4)cc3)ncc2F)n1C(C)C` [C3], the “effect on C/EBPβ gene expression” value in the assay with C/EBPβ gene expression is “no effect”. Further, the “DGAT2 mRNA level decreased by” value in the assay on DGAT2 mRNA was 46%.
On to `CNC(=O)c1nn(C)c2c1C(C)(C)Cc1cnc(Nc3ccc(N4CCN(C)CC4)cc3)nc1-2` [C16, Milciclib], for which, in the assay on CDK5R1, the “pXC50 CDK5R1” value is reported as 6.58. The “pXC50 CDK16” value in the assay with CDK16 is listed as 7.10.
